Laboratory results published in patent US20060069132A1, “Azolecarboxamide herbicides” (priority 2004, published 2006).
Like-named read-outs stand apart in the source and are kept apart here.

Columns and labels:
[1] = test system: large crabgrass; experiment: Test B pre-/postemergence herbicide test; type: in vivo, Digitaria sanguinalis; details: Digitaria sanguinalis; for pest or weed control at 125 g/ha: 125 g ai/ha; for pest or weed control at 500 g/ha: 500 g ai/ha
Outline: (§1)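 Plants compared with untreated controls 13–15 days post-treatment and given a visual 0–100 injury score. Applications: preemergence to seeds; postemergence at 1- to 4-leaf (2–18 cm); paddy species flooded, 2-leaf stage. Vehicle non-phytotoxic, surfactant included.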

[2] = test system: barnyardgrass; experiment: Test B pre-/postemergence herbicide test; type: in vivo, Echinochloa crus-galli; details: Echinochloa crus-galli; for pest or weed control at 125 g/ha: 125 g ai/ha; for pest or weed control at 500 g/ha: 500 g ai/ha
Outline: (§2)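 Test chemicals in a non-phytotoxic solvent mixture with surfactant were applied preemergence to seeded species and postemergence to plants 2-18 cm tall (1- to 4-leaf stage); rice and barnyardgrass were also tested in a flooded paddy at the 2-leaf stage. Visual rating versus controls after 13-15 days in greenhouse, scale 0 (no effect) to 100 (complete control).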

[3] = test system: morningglory; experiment: Test B pre-/postemergence herbicide test; type: in vivo, Ipomoea coccinea; details: Ipomoea, 336 h; for pest or weed control at 125 g/ha: 125 g ai/ha; for pest or weed control at 500 g/ha: 500 g ai/ha
Outline: as §2

[4] = test system: rice; experiment: Test B flooded paddy test; type: in vivo, Oryza sativa; details: Oryza sativa, 336 h, 1000 g ai/ha, scale 0 to 100 (0 no effect, 100 complete control), read-out: Rice plant response rating
Outline: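 Formulated test chemicals went onto postemergence plants measuring 2 to 18 cm, at one to four leaves. For the paddy assay, species had reached two leaves. Scoring took place 13–15 days later by eye, relative to untreated plants, using 0 for no effect up to 100 for full control.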

[5] = test system: Surinam grass; experiment: Test B pre-/postemergence herbicide test; type: in vivo, Urochloa decumbens; details: Urochloa decumbens; for pest or weed control at 125 g/ha: 125 g ai/ha; for pest or weed control at 500 g/ha: 500 g ai/ha
Outline: as §1

[6] = test system: corn; experiment: Test B pre-/postemergence herbicide test; type: in vivo, Zea mays; details: Zea mays; for plant injury at 125 g/ha: 125 g ai/ha
Outline: as §1

[7] = test system: blackgrass; experiment: Test B postemergence herbicide test; type: in vivo, Alopecurus myosuroides; details: Alopecurus myosuroides, post-emergence, 336 h, postemergence, visual rating, scale 0 (no effect) to 100 (complete control), read-out: Blackgrass plant response rating
Outline: (§3)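 Paddy species grown to the 2-leaf stage under flooding; blackgrass sprayed postemergence at 2–18 cm (1- to 4-leaf stage). Plants kept in a greenhouse for 13 to 15 days, then visually rated against controls on 0 (no effect) to 100 (complete control).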

[8] = test system: wheat; experiment: Test B postemergence herbicide test; type: in vivo, Triticum aestivum; details: Triticum aestivum, post-emergence, 336 h, postemergence, read-out: Wheat plant response rating
Outline: (§4)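 Postemergence plants were sprayed with formulated test chemicals at 2 to 18 cm height (1- to 4-leaf stage); paddy species were grown to the 2-leaf stage. After 13 to 15 days in a greenhouse, injury was rated visually against untreated controls on a 0–100 scale (0 = no effect, 100 = complete control).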

[9] = test system: giant foxtail; experiment: Test B pre-/postemergence herbicide test; type: in vivo, Setaria faberi; details: Setaria faberi, 336 h; for pest or weed control at 125 g/ha: 125 g ai/ha; for pest or weed control at 500 g/ha: 500 g ai/ha
Outline: as §1

[10] = test system: wild oat; experiment: Test B postemergence herbicide test; type: in vivo, Avena fatua; details: Avena fatua, post-emergence, 336 h, postemergence, read-out: Oat, Wild plant response rating
Outline: as §4

[11] = test system: small flower umbrella sedge; experiment: Test B flooded paddy test; type: in vivo, Cyperus difformis; details: Cyperus difformis, 336 h, 1000 g ai/ha, scale 0 to 100 (0 no effect, 100 complete control), read-out: Sedge, Umbrella plant response rating
Outline: as §3

[12] = test system: cocklebur; experiment: Test B pre-/postemergence herbicide test; type: in vivo, Xanthium strumarium; details: Xanthium strumarium; for pest or weed control at 125 g/ha: 125 g ai/ha; for pest or weed control at 500 g/ha: 500 g ai/ha
Outline: as §2

[13] = test system: pigweed; experiment: Test B pre-/postemergence herbicide test; type: in vivo, Amaranthus retroflexus; details: Amaranthus retroflexus, 336 h; for pest or weed control at 125 g/ha: 125 g ai/ha; for pest or weed control at 500 g/ha: 500 g ai/ha
Outline: as §1

[14] = test system: ducksalad; experiment: Test B flooded paddy test; type: in vivo, Heteranthera limosa; details: Heteranthera limosa, 336 h, 1000 g ai/ha, scale 0 to 100 (0 no effect, 100 complete control), read-out: Ducksalad plant response rating
Outline: as §3

[15] = test system: velvetleaf; experiment: Test B pre-/postemergence herbicide test; type: in vivo, Abutilon theophrasti; details: Abutilon theophrasti, 336 h; for pest or weed control at 125 g/ha: 125 g ai/ha; for pest or weed control at 500 g/ha: 500 g ai/ha
Outline: as §1

[16] = post-emergence, postemergence, visual rating, scale 0 (no effect) to 100 (complete control), read-out: Barnyardgrass plant response rating
[17] = 125 g ai/ha, visual rating, scale 0 (no effect) to 100 (complete control)
[18] = 500 g ai/ha, scale 0 to 100, 0 is no effect, 100 is complete control
[19] = post-emergence, postemergence, visual rating, scale 0 (no effect) to 100 (complete control), read-out: Cocklebur plant response rating

## CCN1N=C(C(C)(C)C)CC1C(=O)Nc1cc(C(=O)N(C)C)ccc1F (stereo not drawn) [Compound 268, N-[5-[(dimethylamino)carbonyl]-2-fluorophenyl]-3-(1,1-dimethylethyl)-1-ethyl-4,5-dihydro-1H-pyrazole-5-carboxamide]
[1]; post-emergence, postemergence, visual rating, scale 0 (no effect) to 100 (complete control), read-out: Crabgrass, Large plant response rating
  pest or weed control at 125 g/ha: 0%
[1]; post-emergence, postemergence, scale 0 to 100, 0 is no effect, 100 is complete control, read-out: Crabgrass, Large plant response rating
  pest or weed control at 500 g/ha: 20%
[1]; pre-emergence, 0 = no effect, 100 = complete control, read-out: Crabgrass, Large plant response rating (0 to 100 scale)
  pest or weed control at 125 g/ha: 100%
[1]; pre-emergence, visual rating, 0 = no effect, 100 = complete control, read-out: Plant response rating, Crabgrass, Large
  pest or weed control at 500 g/ha: 100%
[2]; [16]
  pest or weed control at 125 g/ha: 0%
  pest or weed control at 500 g/ha: 30%
[2]; pre-emergence, 0 = no effect, 100 = complete control, read-out: Barnyardgrass plant response rating (0 to 100 scale)
  pest or weed control at 125 g/ha: 100%
[2]; pre-emergence, visual rating, 0 = no effect, 100 = complete control, read-out: Plant response rating, Barnyardgrass
  pest or weed control at 500 g/ha: 100%
[3]; post-emergence, postemergence, visual rating, scale 0 (no effect) to 100 (complete control), read-out: Morningglory plant response rating
  pest or weed control at 125 g/ha: 10%
[3]; post-emergence, postemergence, scale 0 to 100, 0 is no effect, 100 is complete control, read-out: Morningglory plant response rating
  pest or weed control at 500 g/ha: 20%
[3]; pre-emergence, 0 = no effect, 100 = complete control, read-out: Morningglory plant response rating (0 to 100 scale)
  pest or weed control at 125 g/ha: 0%
[3]; pre-emergence, visual rating, 0 = no effect, 100 = complete control, read-out: Plant response rating, Morningglory
  pest or weed control at 500 g/ha: 20%
[4]
  plant injury at 1000 g/ha: 90%
[5]; post-emergence, postemergence, visual rating, scale 0 (no effect) to 100 (complete control), read-out: Surinam Grass plant response rating
  pest or weed control at 125 g/ha: 10%
[5]; post-emergence, postemergence, scale 0 to 100, 0 is no effect, 100 is complete control, read-out: Surinam Grass plant response rating
  pest or weed control at 500 g/ha: 50%
[5]; pre-emergence, 0 = no effect, 100 = complete control, read-out: Surinam Grass plant response rating (0 to 100 scale)
  pest or weed control at 125 g/ha: 80%
[5]; pre-emergence, visual rating, 0 = no effect, 100 = complete control, read-out: Plant response rating, Surinam Grass
  pest or weed control at 500 g/ha: 100%
[6]; post-emergence, postemergence, visual rating, scale 0 (no effect) to 100 (complete control), read-out: Corn plant response rating
  plant injury at 125 g/ha: 20%
[6]; post-emergence, postemergence, 500 g ai/ha, scale 0 to 100, 0 is no effect, 100 is complete control, read-out: Corn plant response rating
  plant injury at 500 g/ha: 30%
[6]; pre-emergence, 0 = no effect, 100 = complete control, read-out: Corn plant response rating (0 to 100 scale)
  plant injury at 125 g/ha: 80%
[6]; pre-emergence, 500 g ai/ha, visual rating, 0 = no effect, 100 = complete control
  Corn plant response rating (crop injury, 0 = no effect, 100 = complete kill) at 500 g/ha: 90%
[7]; 125 g ai/ha
  pest or weed control at 125 g/ha: 30%
[7]; 500 g ai/ha
  pest or weed control at 500 g/ha: 50%
[8]; [17]
  plant injury at 125 g/ha: 30%
[8]; [18]
  plant injury at 500 g/ha: 30%
[9]; post-emergence, postemergence, visual rating, scale 0 (no effect) to 100 (complete control), read-out: Foxtail, Giant plant response rating
  pest or weed control at 125 g/ha: 10%
[9]; post-emergence, postemergence, scale 0 to 100, 0 is no effect, 100 is complete control, read-out: Foxtail, Giant plant response rating
  pest or weed control at 500 g/ha: 20%
[9]; pre-emergence, 0 = no effect, 100 = complete control, read-out: Foxtail, Giant plant response rating (0 to 100 scale)
  pest or weed control at 125 g/ha: 100%
[9]; pre-emergence, visual rating, 0 = no effect, 100 = complete control, read-out: Plant response rating, Foxtail, Giant
  pest or weed control at 500 g/ha: 100%
[10]; [17]
  pest or weed control at 125 g/ha: 30%
[10]; [18]
  pest or weed control at 500 g/ha: 50%
[11]
  pest or weed control at 1000 g/ha: 80%
[12]; [19]
  pest or weed control at 125 g/ha: 20%
  pest or weed control at 500 g/ha: 50%
[12]; pre-emergence, 0 = no effect, 100 = complete control, read-out: Cocklebur plant response rating (0 to 100 scale)
  pest or weed control at 125 g/ha: 80%
[12]; pre-emergence, visual rating, 0 = no effect, 100 = complete control, read-out: Plant response rating, Cocklebur
  pest or weed control at 500 g/ha: 90%
[13]; post-emergence, postemergence, visual rating, scale 0 (no effect) to 100 (complete control), read-out: Pigweed plant response rating
  pest or weed control at 125 g/ha: 20%
[13]; post-emergence, postemergence, scale 0 to 100, 0 is no effect, 100 is complete control, read-out: Pigweed plant response rating
  pest or weed control at 500 g/ha: 50%
[13]; pre-emergence, 0 = no effect, 100 = complete control, read-out: Pigweed plant response rating (0 to 100 scale)
  pest or weed control at 125 g/ha: 100%
[13]; pre-emergence, visual rating, 0 = no effect, 100 = complete control, read-out: Plant response rating, Pigweed
  pest or weed control at 500 g/ha: 100%
[14]
  pest or weed control at 1000 g/ha: 90%
[15]; post-emergence, postemergence, visual rating, scale 0 (no effect) to 100 (complete control), read-out: Velvetleaf plant response rating
  pest or weed control at 125 g/ha: 20%
[15]; post-emergence, postemergence, scale 0 to 100, 0 is no effect, 100 is complete control, read-out: Velvetleaf plant response rating
  pest or weed control at 500 g/ha: 60%
[15]; pre-emergence, 0 = no effect, 100 = complete control, read-out: Velvetleaf plant response rating (0 to 100 scale)
  pest or weed control at 125 g/ha: 100%
[15]; pre-emergence, visual rating, 0 = no effect, 100 = complete control, read-out: Plant response rating, Velvetleaf
  pest or weed control at 500 g/ha: 100%
